The results in this text go back to ChEMBL document CHEMBL1130719, “Synthesis of 6(alpha, beta)-aminocholestanols as ergosterol biosynthesis inhibitors” (Bioorg Med Chem Lett, 1998).

Holding throughout (type): functional, organism-based
In assay [1] the test system is Candida albicans. Put plainly: Compound was tested for growth inhibition against Candida albicans (CIP 1180.79).
For assay [2], the system named is Saccharomyces cerevisiae. Put plainly: Compound was tested for growth inhibition against Saccharomyces cerevisiae (ATCC 28383).
The subject of assay [3] is Candida albicans. As to the kind of experiment: Compound was tested for growth inhibition against Candida albicans (CIP 1180.79); Inactive over 250 uM.
In assay [4] the test system is Saccharomyces cerevisiae. Put plainly: Compound was tested for growth inhibition against Saccharomyces cerevisiae (ATCC 28383); Inactive over 250 uM.
For assay [5], the system named is Candida albicans. As to the kind of experiment: Compound was tested for growth inhibition against Candida albicans (CIP 1180.79); Slow development (>80-<100 uM).
Assay [6] concerns Saccharomyces cerevisiae. Put plainly: Compound was tested for growth inhibition against Saccharomyces cerevisiae (ATCC 28383); Slow development (>80-<100 uM).

Consider `CC(C)CCC[C@@H](C)C1CC[C@H]2[C@@H]3C[C@H](N)[C@H]4C[C@@H](O)CC[C@]4(C)[C@H]3CC[C@]12C` (some centres not stated), for which the half-inhibitory concentration (IC50) was under 31 µM with Candida albicans [1] and under 15 µM with Saccharomyces cerevisiae [2].

In the case of `CC(C)CCC[C@@H](C)C1CC[C@H]2[C@@H]3C[C@H]([N+](=O)[O-])[C@H]4C[C@@H](O)CC[C@]4(C)[C@H]3CC[C@]12C` (some centres not stated), the half-maximal inhibitory concentration (IC50) result in the assay on Candida albicans [3] and in the assay with Saccharomyces cerevisiae [4] was “Not Active” in each case.

`CC(=O)N[C@H]1C[C@@H]2[C@H](CC[C@]3(C)C([C@H](C)CCCC(C)C)CC[C@@H]23)[C@@]2(C)CC[C@H](O)C[C@H]12` (some centres not stated): the concentration for half-maximal inhibition (IC50) in the assay with Candida albicans [5] and in the assay on Saccharomyces cerevisiae [6] was over 80 µM in each case.

`CC(=O)N[C@@H]1C[C@@H]2[C@H](CC[C@]3(C)C([C@H](C)CCCC(C)C)CC[C@@H]23)[C@@]2(C)CC[C@H](O)C[C@H]12` (some centres not stated): the 50% inhibitory concentration (IC50) with Candida albicans [5] and in the assay on Saccharomyces cerevisiae [6] was over 80 µM each time.

For the compound `CC(C)CCC[C@@H](C)C1CC[C@H]2[C@@H]3C[C@@H](N)C4C[C@@H](O)CC[C@]4(C)[C@H]3CC[C@]12C` (some centres not stated), the IC50 is under 7 µM in the assay on Candida albicans [1] and under 15 µM in the assay with Saccharomyces cerevisiae [2].

On to `CC(C)CCC[C@@H](C)C1CC[C@H]2[C@@H]3C[C@@H]([N+](=O)[O-])[C@H]4C[C@@H](O)CC[C@]4(C)[C@H]3CC[C@]12C` (some centres not stated), for which the concentration for half-maximal inhibition (IC50) result with Candida albicans [3] and in the assay with Saccharomyces cerevisiae [4] was “Not Active” in each case.
